Experimental data from patent US9174988B2, “Small molecule inhibitors of hepatitis C virus” (TRUSTEES OF BOSTON UNIVERSITY, priority 2009, dated 2015).
Like-named read-outs stand apart in the source and are kept apart here.

How the values were obtained:
HCV 2a J6/JFH-1 = test: HCV infectivity assay by real-time RT-PCR of HCV RNA (EC50 at T1 and T2); format: cell-based, hepatitis C virus; conditions: for EC50's (stage not specified): HCV 2a strain J6/JFH-1 in hepatoma cells; for EC50: Hepatitis C virus
Method: In this assay HCV infectivity is measured using real-time RT-PCR to monitor changes in expression of HCV 2a J6/JFH-1 RNA. Cells are incubated with test compound in the presence of HCV, followed by isolation of RNA, conversion to cDNA, and Taqman-based QPCR. As designed, a compound that inhibits HCV infectivity will reduce HCV RNA expression, leading to decreased production of the PCR amplicon, thereby reducing fluorescence, and increasing Ct.
Huh-7.5 cells were plated the day before the assay. After allowing the cells to adhere overnight, test compound was prepared in HCV supernatant by making 1:10 serial dilutions from 100 micromolar down to 0.001 micromolar. Doses of test compound in virus were added to cells and incubated for 24 hours. The next day, cell culture media was removed from each well and replaced with same dilutions of compound in complete media were added to cells and incubated for another 48 hours for T1 timepoint. Then cells were lysed and RNA was isolated using the RNeasy kit (QIAGEN, Valencia, Calif.). Supernatant from T1 was transferred to fresh naïve cells and incubated for 24 hours. Culture media were removed from cells and replaced with complete media and incubated for 48 hours for T2 timepoint. Cells for T2 timepoint were lysed and RNA was isolated using the RNeasy kit (QIAGEN, Valencia, Calif.). DNA was generated using the Taqman reverse transcription kit (Applied Biosystems, Foster City, Calif.). Quantitative real-time polymerase chain reaction (PCR) was performed in triplicate using LightCycler RNA Amplification Kit HybProbe master mix (Roche) with Taqman MGB Probe 6FAM-[…]-MGBNFQ on a model LightCycler480 real time PCR system (Roche). Data are expressed as the mean fold change plus or minus SE of 3 replicates normalized to 100 ug total RNA. Primers used were forward […] and reverse […]. The range of activity was normalized based on measurement of total RNA. Compounds were tested in triplicate in a 6-point 1:10 dilution series starting at a nominal test concentration of 100 micromolar.
The compounds were then studied in the same Huh7-5 cells infected with HCV 2a strain J6/JFH-1 (Kota, et al., ASSAY Drug Dev. Tech (2009) 8: 96). Huh-7.5 hepatoma cells were electroporated with RNA from HCV and the 72-hour supernatant was used as a source of infectious virus. This supernatant was combined with compounds identified as inhibitors of core dimerization. Two stages of infection were studied: early stage (T1), corresponding to the initial 72-hour culture of naïve cells infected in the presence of the inhibitor, and late stage (T2), corresponding to the second 72-hour passage through naïve cells. HCV RNA detected in T1 results from actual viral infection and replication. HCV RNA detected in T2 results from infectious virus secreted in T1 and replicated in freshly infected naïve cells. Real-time reverse-transcriptase PCR was done on RNA extracted and purified from the cells treated with increasing concentrations (0.001-100 μM) of each of the compounds. […] For comparative purposes, data for BILN2061a known inhibitor of the NS3/NS4A protease (Lamarre, et al., Nature (2003) 426: 186), is included.

[1] = target: T1, core106 (HCV core protein domain) dimerization (Hepatitis C virus genotype 1a, UniProt P27958); test: Core106 ALPHA screen (AlphaScreen) core dimerization assay; format: binding; conditions: for inhibition of core dimerization (in words): level of activity in words, partly relative to 16
T1 construct: a core106 protein domain was tagged with either Glutathione-S-transferase (GST) tag or a Flag peptide tag
T1 sequence (P27958 2-106): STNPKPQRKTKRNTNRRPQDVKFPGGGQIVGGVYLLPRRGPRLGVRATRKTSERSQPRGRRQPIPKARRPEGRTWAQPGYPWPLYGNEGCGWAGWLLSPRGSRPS
Method: FIG. 16b is a dose-response analysis of compound 1 (SL201). Core106 ALPHA screen assay was used for the dose-response analyses. The compound was dosed from 0 to 100 μM. The IC50 was calculated using a non-linear regression ‘Log (inhibitor) versus response’ with four points for each concentration.
Core106 ALPHA screen assay was used for the dose response analyses. The compounds were dosed from 0 to 100 μM. The IC50 were calculated using a nonlinear regression “Log (inhibitor) vs. response” with 4 points for each concentration. The difference in IC50 for compound 1 (SL201) is due to the using two different lots of SL201 and the values are within experimental error.
This assay employed the AlphaScreen® technology, a secondary Amplified Luminescent Proximity Homogeneous Assay as described in Kota, et al, J. Gen Virol. (2009) 90: 1319-1328, content of which is herein incorporated by reference. AlphaScreen is based on the use of photoactive donor and acceptor beads that recognize specific tags on interacting proteins (Peppard, 2003). Core106 dimerization was confirmed using AlphaScreen technology in which a core106 protein domain was tagged with either Glutathione-S-transferase (GST) tag or a Flag peptide tag. The untagged core106 protein domain was used as a model competitor in the assay. The proteins were diluted to working concentrations in ‘protein buffer’ (100 mM HEPES pH 7.5, 1 mM EDTA, 5 mM DTT, 0.1% CHAPS, 10% glycerol). The donor and acceptor beads were diluted to working concentrations in ‘bead buffer’ (20 mM HEPES pH7.5, 125 mM NaCl, 0.1% BSA, 0.1% CHAPS). GST-tagged core106 (150 nM) was incubated with 150 nM of Flag-tagged core106 for 1 h at room temperature. Anti-Flag acceptor beads (Perkin Elmer Lifesciences) were added to the proteins at a final concentration of 20 μg/ml and incubated for 1 h at room temperature. Then, Glutathione donor beads (Perkin Elmer Lifesciences) were added to the proteins at a final concentration of 20 μg/ml and incubated for 1 h. The assays were executed in a white 384 well Packard opti plate (Perkin Elmer Lifesciences) and were read on Perkin Elmer Envision.
Uninhibited or 0% inhibition control is defined as wells containing only GST-core106 and Flag-core106. 100% inhibition control is defined as wells containing GST-core106 and Flag-core106 with core106 as an inhibitor. Test compound is wherein the test compound is analyzed.
Compounds were tested in triplicate in a 10-point series starting at a nominal test concentration of 50 nM. For each test compound, percent inhibition was plotted against compound concentration. A four parameter equation describing a sigmoidal dose-response curve was plotted using GraphPad Prism® (GraphPad Software Inc). The reported IC50 values were generated from fitted curves by solving for the X-intercept value at the 50% inhibition level of the Y-intercept value.

Huh-7.5 cells = test: XTT cytotoxicity assay (CC50); format: cell-based; conditions: human, 72 h
Description: (§1) This assay utilized the compound XTT (2,3-bis[2-methoxy-4-nitro-5-sulfophenyl]-2H-tetrazolium-5-carboxyanilide inner salt) with addition of an electron coupling agent phenazine methosulfate (PMS) to measure mitochondrial dehydrogenases activity in living cells, e.g., Huh-7.5 cells. Dehydrogenases in mitochondria of living cells cleave the tetrazolium ring of XTT changing the color of the solution from clear to orange. As designed, compounds that reduce cell viability will reduce activity of the mitochondrial dehydrogenases, and leave a decreased orange color in solution.
(§2) The Huh-7.5 cell line was routinely cultured in 15-cm dishes at 37 degrees C. and 95% relative humidity (RH). The growth media consisted of DMEM supplemented with 10% v/v certified fetal bovine serum, 4 mM L-glutamine, 1 mM sodium pyruvate, 1× antibiotic mix (penicillin, streptomycin, and glutamine), and 1× non-essential amino acids.
(§3) Prior to the start of the assay 8000 cells in 100 microliter volume of colorless growth media were dispensed into each well of 96-well tissue culture-treated microtiter plates and incubated overnight at 37 degrees C. (5% CO2, 95% RH) to allow cells to adhere to the plate. The next day, 100 microliter of test compound in DMSO (1.25% final DMSO concentration) and DMSO only were added to wells. Wells with only test compound in media without cells were used to normalize the data (to account for the color a test compound may have). Next, the plates were incubated for 72 hours at 37 degrees C. (5% CO2, 95% RH). Solution of XTT-PMS was prepared in 1×PBS and added to the cells in 50 microliter volume to each well and incubated for 4 hours at 37 degrees C. (5% CO2, 95% RH). After equilibrating the plates to room temperature for 10 minutes, optical density at 450 nm and […] was measured on Biotek plate reader.
(§4) The percent inhibition for each compound was calculated as follows: % Inhibition=((DMSO Control−Test compound)/DMSO Control)*100, wherein Test compound is defined as wells containing test compound.
(§5) Compounds were tested in triplicate in a 7-point 1:3 dilution series starting at a nominal test concentration of 320 micromolar. For each test compound, percent inhibition was plotted against compound concentration. A four parameter equation describing a sigmoidal dose-response curve was then fitted with adjustable baseline using MicroSoft Excel software. The reported CC50 values were generated from fitted curves by solving for the X-intercept value at the 50% inhibition level of the Y-intercept value.

[2] = XTT cytotoxicity assay (CC50); format: cell-based; conditions: human, CC50
Description: as §1, §2, §3, §4, §5

[3] = Huh7.5, read-out: HCV2a J6/JFH-1 T1-EC50
[4] = Huh7.5, read-out: HCV2a J6/JFH-1 T2-EC50
[5] = inhibition of core dimerization, Table 3, read-out: IC50
[6] = inhibition of core dimerization, see FIG. 17, Table 2, read-out: IC50
[7] = AlphaScreen, read-out: IC50 for inhibition of core dimerization

SMILES	EC50's (stage not specified) (HCV 2a J6/JFH-1)	EC50 (HCV 2a J6/JFH-1; [3]) [µM]	EC50 (HCV 2a J6/JFH-1; [4]) [µM]	EC50 (HCV 2a J6/JFH-1; read-out: HCV 2A T1 - EC50) [µM]	EC50 (HCV 2a J6/JFH-1; read-out: HCV 2A T2 - EC50) [µM]	IC50 [1, 5] [µM]	IC50 [1, 6] [µM]	CC50 (Huh-7.5 cells) [µM]	CC50 at 72 h [2] [µM]	IC50 [1, 7] [µM]	inhibition of core dimerization (in words) [1]
CC#CCN1c2ccccc2[C@]23CCC(=O)N(CCOC)C2=NC(C(=O)OC)=C(C(=O)OC)C13 (mixture of isomers) [Compound 15]	single digit	4.9	0.7	4.9	0.7	2	2	> 320	> 320	–	–
C=CCN1c2ccccc2[C@]23CCC(=O)N(Cc4ccccc4)C2=NC(C(=O)OC)=C(C(=O)OC)C13 (mixture of isomers) [Compound 16]	single digit	2.3	3.2	2.3	3.2	1.4	1.4	127	127	1.4	–
C=CCN1c2ccccc2[C@]23CCC(=O)N(Cc4cc(OC)c(OC)c(OC)c4)C2=NC(C(=O)OC)=C(C(=O)OC)C13 (mixture of isomers) [Compound 17]	–	3.8	3	3.8	3	2	2	–	5.3	–	–
COC(=O)C1=C(C(=O)OC)C2N(C)c3ccc(OC)cc3[C@@]23C[C@@H](C(=O)OC)N(C(=O)CC(C)C)C3=N1 (single isomer, unassigned) [Compound 1]	–	14.8	22.2	8.8	8.1	9.3	9.3	> 320	> 320	5.7	–
COc1ccc2c(O[C@@H]3C[C@H]4C(=O)N[C@]5(C(=O)O)C[C@H]5/C=C\CCCCC[C@H](NC(=O)OC5CCCC5)C(=O)N4C3)cc(-c3csc(NC(C)C)n3)nc2c1 [BILN2061, reference compound]	–	0.072	0.071	–	–	–	–	–	5.3	–	–
COC(=O)[C@@H]1C[C@@]23C(=NC(c4ccc([N+](=O)[O-])cc4)=C(C(F)(F)F)C2N(C)c2ccccc23)N1C(C)=O (some centres unmarked) [Compound 22a]	–	–	–	1.3	0.9	–	–	–	310	5.6	–
COC(=O)C1=C(C(=O)OC)C2N(CCCCCn3cc(-c4ccc(OC)cc4C)nn3)c3ccccc3[C@@]23CCC(=O)N(Cc2ccccc2)C3=N1 (some centres unmarked) [Compound 27]	–	–	–	1.4	1.1	–	–	–	> 100	0.092	sub-micromolar
COC(=O)C1=C(C(=O)OC)C2N(CCCCCn3cc(CNC(C)=O)nn3)c3ccccc3[C@@]23CCC(=O)N(Cc2ccccc2)C3=N1 (some centres unmarked) [Compound 28]	–	–	–	26.2	56.2	0.341	–	–	150	–	sub-micromolar
COC(=O)C1=C(C(=O)OC)C(NCCCN2c3ccccc3[C@]34CCC(=O)N(Cc5ccccc5)C3=NC(C(=O)OC)=C(C(=O)OC)C24)[C@@]2(c3ccccc3)CCC(=O)N(Cc3ccccc3)C2=N1 (some centres unmarked) [SL235]	–	–	–	0.088	0.735	2.9	–	–	> 36	–	–
